Results on 64 compounds are retold here after PMC7802075 (ACS Infectious Diseases, 2020).

One assay addresses T1, LmjIPCS (inositol phosphorylceramide synthase from L. major) (Leishmania major, UniProt E9AFX2).
T1 sequence (E9AFX2 1-338): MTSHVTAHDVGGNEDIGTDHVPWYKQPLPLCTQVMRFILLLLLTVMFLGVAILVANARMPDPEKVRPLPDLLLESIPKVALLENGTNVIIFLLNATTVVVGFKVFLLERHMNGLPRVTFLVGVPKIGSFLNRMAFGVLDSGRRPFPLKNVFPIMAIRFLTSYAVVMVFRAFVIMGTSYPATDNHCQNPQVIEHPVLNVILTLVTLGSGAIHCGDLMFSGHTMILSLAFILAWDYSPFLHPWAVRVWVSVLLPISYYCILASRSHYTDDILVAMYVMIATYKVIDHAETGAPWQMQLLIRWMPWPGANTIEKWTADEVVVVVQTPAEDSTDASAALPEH
Nature of the assay: biochemical. The assay is classed as biochemical. Also on record: inhibition: dose or concentration left out as unconfirmed.
Details: not given
As for `CC(=O)[C@H]1CC[C@H]2[C@@H]3CCC4=CC(=O)CC[C@]4(C)[C@H]3CC[C@]12C` [PROGESTERONE], the “20mM inhibition LmjIPCS” value turned out to be 65%.

Take `CCCNCC(O)COc1ccccc1C(=O)CCc1ccccc1` (stereo not shown) [PROPAFENONE]: the “20mM inhibition LmjIPCS” value is on record as 61%.

With `O=C1c2ccccc2C(=O)c2c(O)c(O)cc(O)c21` [PURPURIN], the “20mM inhibition LmjIPCS” value turned out to be 35%.

With `CCC1(CC)C(=O)C=CNC1=O` [PYRITHYLDIONE], the “20mM inhibition LmjIPCS” value amounted to 52%.

On to `CCN(CC)CCCC(C)Nc1c2ccc(Cl)cc2nc2ccc(OC)cc12` (stereo not shown) [QUINACRINE], for which the “20mM inhibition LmjIPCS” value is given as 59%.

Regarding `C=C[C@H]1C[N@@]2CC[C@H]1C[C@@H]2[C@@H](O)c1ccnc2ccc(OC)cc12` [QUINIDINE], the “20mM inhibition LmjIPCS” value was found to be 55%.

For `CNC(C)C(O)c1ccccc1` (stereo not shown) [RACEPHEDRINE], the “20mM inhibition LmjIPCS” value is given as 41%.

With `CC(NCCc1ccc(O)cc1)C(O)c1ccc(O)cc1` (stereo not shown) [RITODRINE], the “20mM inhibition LmjIPCS” value is 58%.

Regarding `O=C(/C=C/c1ccc(O)c(O)c1)O[C@H](Cc1ccc(O)c(O)c1)C(=O)O` [ROSMARINIC ACID], the “20mM inhibition LmjIPCS” value was 58%.

On to `C=C(C)[C@H]1Cc2c(ccc3c2O[C@@H]2COc4cc(OC)c(OC)cc4[C@@H]2C3=O)O1` [ROTENONE], for which the “20mM inhibition LmjIPCS” value stood at 43%.

As for `COc1cc2c(cc1O)CCNC2C` (stereo not shown) [SALSOLINE], the “20mM inhibition LmjIPCS” value came out at 12%.

For `CO[C@H]1C[C@H](O[C@@H]2/C(C)=C/C[C@@H]3C[C@@H](C[C@]4(CC[C@H](C)[C@@H](C5CCCCC5)O4)O3)OC(=O)[C@@H]3C=C(C)/C(=N/O)[C@H]4OC/C(=C\C=C\[C@@H]2C)[C@]43O)O[C@@H](C)[C@@H]1O` [SELAMECTIN], the “20mM inhibition LmjIPCS” value stood at 45%.

For the compound `O=C(O)c1cc(O)c2c(c1)[C@H]([C@H]1c3cc(C(=O)O)cc(O)c3C(=O)c3c(O[C@@H]4O[C@H](CO)[C@@H](O)[C@H](O)[C@H]4O)cccc31)c1cccc(O[C@@H]3O[C@H](CO)[C@@H](O)[C@H](O)[C@H]3O)c1C2=O` [SENNOSIDE A], the “20mM inhibition LmjIPCS” value was found to be 62%.

Regarding `C[C@H](CCC(=O)[O-])[C@H]1CC[C@H]2[C@@H]3C(=O)C[C@@H]4CC(=O)CC[C@]4(C)[C@H]3CC(=O)[C@]12C.[Na+]` [SODIUM DEHYDROCHOLATE], the “20mM inhibition LmjIPCS” value is reported as -6.4%.

The same assay, now with this note: NINDS set screen, single concentration printed as 20mM.
With `CC(C)NCC(O)c1ccc2ccccc2c1` (stereo not shown) [PRONETALOL], the “20mM inhibition LmjIPCS” value amounted to 60%.

With `CC(C)[N+](C)(CCOC(=O)C1c2ccccc2Oc2ccccc21)C(C)C` [PROPANTHELINE BROMIDE], the “20mM inhibition LmjIPCS” value is given as 35%.

In the case of `CC[C@H]1OC(=O)[C@H](C)[C@@H](O[C@H]2C[C@@](C)(OC)[C@@H](O)[C@H](C)O2)[C@H](C)[C@@H](O[C@@H]2O[C@H](C)C[C@H](N(C)C)[C@H]2O)[C@](C)(O)C[C@@H](C)/C(=N\OCOCCOC)[C@H](C)[C@@H](O)[C@]1(C)O` [ROXITHROMYCIN], the “20mM inhibition LmjIPCS” value came to 59%.

Still in this assay, the particulars now being: NINDS set screen; read-out: inhibition LmjIPCS.
As to `NC(=O)c1cnccn1` [PYRAZINAMIDE], the inhibition (usually the drop in the measured response relative to a control, in per cent) was -17%.

With `O=C1c2ccc(O)c(O)c2C(=O)c2c(O)ccc(O)c21` [QUINALIZARIN], the inhibition was -2.7%.

Turning to `Cc1c(NC(C)C)c(=O)n(-c2ccccc2)n1C` [RAMIFENAZONE], the inhibition came out at 0.419%.

`CC1=C(/C=C/C(C)=C/C=C/C(C)=C/CO)C(C)(C)CCC1` [RETINOL]: the inhibition was 21%.

In the case of `CCCCCCCCCCCCCCCC(=O)OC/C=C(C)/C=C/C=C(C)/C=C/C1=C(C)CCCC1(C)C` [RETINYL PALMITATE], the inhibition was found to be 18%.

For the compound `CS(=O)(=O)c1ccc(C2=C(c3ccccc3)C(=O)OC2)cc1` [ROFECOXIB], the inhibition is -2%.

Take `Cn1c([N+](=O)[O-])cnc1COC(N)=O` [RONIDAZOLE]: the inhibition came out at 0.0172%.

Take `CC(C)c1nc(N(C)S(C)(=O)=O)nc(-c2ccc(F)cc2)c1/C=C/[C@@H](O)C[C@@H](O)CC(=O)O` [ROSUVASTATIN]: the inhibition turned out to be 12%.

Turning to `N[C@@H](CCC(=O)N[C@@H](CSC(CC(=O)O)C(=O)O)C(=O)NCC(=O)O)C(=O)O` (stereo partly drawn) [S-(1,2-DICARBOXYETHYL)GLUTATHIONE], the inhibition turned out to be 14%.

In the case of `OCc1ccccc1O` [SALICYL ALCOHOL], the inhibition stood at 23%.

With `NC(=O)c1ccccc1O` [SALICYLAMIDE], the inhibition was determined as 0.588%.

`O=C(O)c1cn(-c2ccc(F)cc2)c2cc(N3CCNCC3)c(F)cc2c1=O` [SARAFLOXACIN]: the inhibition is 18%.

Staying with this assay, now noted: read-out: 20mM inhibition LmjIPCS.
Turning to `CCCN(CCC)C(=O)C(CCC(=O)O)NC(=O)c1ccccc1` (stereo not shown) [PROGLUMIDE], the inhibition at 20000 µM is 15%.

Regarding `CN[C@@H](C)[C@@H](O)c1ccccc1` [PSEUDOEPHEDRINE], the inhibition at 20000 µM came to 2.14%.

Take `CN(C)C(=O)Oc1ccc[n+](C)c1` [PYRIDOSTIGMINE BROMIDE]: the inhibition at 20000 µM was -5.55%.

As to `[O-][n+]1ccccc1S` [PYRITHIONE ZINC], the inhibition at 20000 µM is 10%.

Turning to `O=c1c(O)c(-c2ccc(O)c(O)c2)oc2cc(O)cc(O)c12` [QUERCETIN], the inhibition at 20000 µM was determined as 3.45%.

As for `C[C@@H]1O[C@@H](Oc2c(-c3ccc(O)c(O)c3)oc3cc(O)cc(O)c3c2=O)[C@H](O)[C@H](O)[C@H]1O` [QUERCITRIN], the inhibition at 20000 µM amounted to 6.42%.

Consider `O=C(O)c1cccnc1C(=O)O` [QUINOLINIC ACID], for which the inhibition at 20000 µM is 5.51%.

Turning to `CC(=O)OC/C=C(C)/C=C/C=C(C)/C=C/C1=C(C)CCCC1(C)C` [RETINYL ACETATE], the inhibition at 20000 µM amounted to 9%.

In the case of `CO[C@H]1/C=C/O[C@@]2(C)Oc3c(C)c(O)c4c(O)c(c(/C=N/N5CCN(C)CC5)c(O)c4c3C2=O)NC(=O)/C(C)=C\C=C\[C@H](C)[C@H](O)[C@@H](C)[C@@H](O)[C@@H](C)[C@H](OC(C)=O)[C@@H]1C` [RIFAMPIN], the inhibition at 20000 µM is 27%.

Take `CO[C@H]1/C=C/O[C@@]2(C)Oc3c(C)c(O)c4c(O)c(c5c(nc6cc(C)ccn65)c4c3C2=O)NC(=O)/C(C)=C\C=C\[C@H](C)[C@H](O)[C@@H](C)[C@@H](O)[C@@H](C)[C@H](OC(C)=O)[C@@H]1C` [RIFAXIMIN]: the inhibition at 20000 µM is 6%.

For the compound `O=C1C=CC(=C(c2ccc(O)cc2)c2ccc(O)cc2)C=C1` [ROSOLIC ACID], the inhibition at 20000 µM is -11%.

In the case of `CC[C@@]1(O)C[C@H](O)c2c(cc3c(c2O)C(=O)c2c(O)ccc(O)c2C3=O)[C@H]1C(=O)OC` [RUTILANTINONE], the inhibition at 20000 µM was determined as 27%.

As for `O=C1NS(=O)(=O)c2ccccc21` [SACCHARIN], the inhibition at 20000 µM was 3.67%.

With `C=CCc1ccc2c(c1)OCO2` [SAFROLE], the inhibition at 20000 µM was found to be 1.28%.

On to `OCc1ccccc1O[C@@H]1O[C@H](CO)[C@@H](O)[C@H](O)[C@H]1O` [SALICIN], for which the inhibition at 20000 µM was determined as 14%.

In the case of `CC[C@@H](C(=O)[C@@H](C)[C@@H](O)[C@H](C)[C@@H]1O[C@@H]([C@@H](CC)C(=O)O)CC[C@@H]1C)[C@H]1O[C@]2(C=C[C@@H](O)[C@]3(CC[C@@](C)([C@H]4CC[C@](O)(CC)[C@H](C)O4)O3)O2)[C@H](C)C[C@@H]1C` [SALINOMYCIN], the inhibition at 20000 µM amounted to 29%.

As to `CN1[C@@H]2C[C@@H](OC(=O)[C@H](CO)c3ccccc3)C[C@H]1[C@@H]1O[C@@H]12` [SCOPOLAMINE], the inhibition at 20000 µM was -2.65%.

Regarding `Cc1ncc([N+](=O)[O-])n1CC(C)O` (stereo not shown) [SECNIDAZOLE], the inhibition at 20000 µM worked out at 12%.

In the case of `O=C1C=C2C=C[C@@H]3C[C@@]2(O1)[C@H]1CCCCN31` [SECURININE], the inhibition at 20000 µM came to 11%.

Consider `CC1CCC(NC(=O)N(CCCl)N=O)CC1` (stereo not shown) [SEMUSTINE], for which the inhibition at 20000 µM stood at 15%.

Take `COc1cc(C2Oc3cc([C@H]4Oc5cc(O)cc(O)c5C(=O)[C@@H]4O)ccc3OC2CO)ccc1O` (stereo partly shown) [SILIBININ]: the inhibition at 20000 µM is 2.14%.

In the case of `COC1=C[C@@H]2[C@@H]3Cc4ccc(OC)c(O)c4[C@]2(CCN3C)CC1=O` [SINOMENINE], the inhibition at 20000 µM turned out to be 8%.

Consider `CN[C@@H]1[C@@H](O)[C@@H](O[C@@H]2[C@@H](O)[C@H](O[C@H]3OC(CN)=CC[C@H]3N)[C@@H](N)C[C@H]2N)OC[C@]1(C)O` [SISOMICIN], for which the inhibition at 20000 µM turned out to be 19%.

The same assay, now with this note: read-out: inhibition LmjIPCS.
Consider `COc1ccc(C[C@H](N)C(=O)N[C@H]2[C@@H](O)[C@H](n3cnc4c(N(C)C)ncnc43)O[C@@H]2CO)cc1` [PUROMYCIN], for which the inhibition was found to be 20%.

As to `COc1ccc(CN(CCN(C)C)c2ccccn2)cc1` [PYRILAMINE], the inhibition is 5.27%.

Consider `CNC(=C[N+](=O)[O-])NCCSCc1ccc(CN(C)C)o1` [RANITIDINE], for which the inhibition is 1.29%.

As to `COC(=O)[C@H]1[C@H]2C[C@H]3c4[nH]c5ccccc5c4CCN3C[C@H]2CC[C@@H]1O` [RAUWOLSCINE], the inhibition amounted to 12%.

Regarding `Oc1cccc(O)c1` [RESORCINOL], the inhibition worked out at 1.29%.

Take `Oc1ccc(/C=C/c2cc(O)cc(O)c2)cc1` [RESVERATROL]: the inhibition was -9%.

Regarding `Cc1cc2nc3c(=O)[nH]c(=O)nc-3n(C[C@H](O)[C@H](O)[C@H](O)CO)c2cc1C` [RIBOFLAVIN], the inhibition is 2.26%.

Still in this assay, the particulars now being: screening of NINDS set, sheet Screen 1; read-out: inhibition LmjIPCS.
Take `CCCc1cc(C(N)=S)ccn1` [PROTHIONAMIDE]: the inhibition was 9%.

On to `CC(=O)Oc1cccc(O)c1` [RESORCINOL MONOACETATE], for which the inhibition was 4%.

As to `COc1ccc(/C=C/c2cc(O)cc(O[C@@H]3O[C@H](CO)[C@@H](O)[C@H](O)[C@H]3O)c2)cc1O` [RHAPONTIN], the inhibition was 3%.

For `CN(CCOc1ccc(CC2SC(=O)NC2=O)cc1)c1ccccn1` (stereo not shown) [ROSIGLITAZONE], the inhibition was determined as 2.64%.

For `CSC(N)=NCCC[C@H](N)C(=O)O` [S-METHYL-L-THIOCITRULLINE ACETATE], the inhibition came to 10%.
